From patent US3947578A, “Omega-[4-(3"-indolyl)-piperidino]-alkyl-arylketones as nevroleptics” (Roussel Uclaf, priority 1972, dated 1976) come the findings set out here.

Structures can show the parent of a compound that is named as a salt. Where two headings read alike, the source gives them in different places.

In series [1] the test system is young rat. In words: cataleptic activity test. It counts as in vivo. To be noted: ip, I.P., dose provoking catalepsy in 50% of the animals, read-out: DE50 Test of Cataleptic Activity. From the text: c. […] The DE50 dose is that dose provoking catalepsy in 50% of the animals after administration of the product.
Series [2] is described as follows: neuroleptic activity, overall (4 tests of Table I). It is filed as in vivo. Particulars: summary of Table I. The procedure: (§1) The neuroleptic activity of the compounds of Examples 1 to 8 were determined in the following 4 tests and the results are reported in Table I:
a. The traction test which consists of suspending a mouse by his front paws from a metal wire stretched horizontally. In a time less than 5 seconds, the normal animal effected recovering by managing to bring one of the rear paws to the wire. The test was run 25 minutes after intraperitoneal administration of the test product to determine the DE50 dose at which 50% of the animals effected recovering in less than 5 seconds.
(§2) b. The chimney test which consists of placing a mouse in the extreme end of a glass tube 30 cm long and with a diameter adapted to the size of the animal. This tube is straightened vertically in a rapid motion and the animal with its head down mounts normally the length of the tube in less than 30 seconds. The test was effected 25 minutes after intraperitoneal administration of the test compounds to determine the DE50 dose which is the dose at which 50% of the animals effected a mounting in less than 30 seconds.
c. The cataleptic activity test using the technique of Boissier et al [Therapie, Vol. 18 (1963), p. 1257-1277] with a young rat having slightly twisted homolaterally paws and noting the intensity of catalepsy. The DE50 dose is that dose provoking catalepsy in 50% of the animals after administration of the product.
(§3) d. The anti-emetic activity test which is determined on dogs vis-a-vis a subcutaneous injection of 0.1 mg/kg of apomorphine hydrochloride to determine the DE50 dose which is that dose which reduces 50% of the number of vomitings provoked by the injection of apomorphine hydrochloride.

Series [3] deals with mouse. As to the kind of experiment: traction test (neuroleptic activity). It counts as in vivo. To be noted: ip, 25 min, I.P., 25 minutes after intraperitoneal administration, read-out: DE50 Traction Test. The procedure:
a. The traction test which consists of suspending a mouse by his front paws from a metal wire stretched horizontally. […] The test was run 25 minutes after intraperitoneal administration of the test product to determine the DE50 dose at which 50% of the animals effected recovering in less than 5 seconds.

Series [4] concerns mouse. In words: chimney test (neuroleptic activity). It counts as in vivo. To be noted: ip, 25 min, I.P., 25 minutes after intraperitoneal administration, read-out: DE50 Chimney Test. The procedure: as §2
The nature of series [5]: acute toxicity (DL50). To be noted: mouse, in vivo, ip; I.P.; mice; mortality recorded 48 hours after administration. The procedure: The different products were tested for the dose which would kill 50% of mice when administered intraperitoneally (DL50).
In series [6] the test system is dogs. In words: anti-emetic activity test vis-a-vis apomorphine hydrochloride. It is filed as in vivo, dog. Particulars: Canis lupus familiaris, ip, read-out: DE50 Test of Anti-emetic Activity. Here is the method:
as §1, §3

Where [7] appears, read: I.P., dogs, subcutaneous 0.1 mg/kg apomorphine hydrochloride, 50% reduction of vomitings.

`O=C(CCCN1CCC(c2c[nH]c3ccccc23)CC1)c1ccc(F)cc1` [Example 1, p-fluoro-ω-[4'-(3"-indolyl)-piperidino]-butyrophenone hydrochloride]: the ED50 in series [1] was determined as 8.5 mg/kg; in series [3], 2.2 mg/kg; in series [4], 1.6 mg/kg; in series [6] (setting [7]), 0.02 mg/kg. In addition, the “neuroleptic activity (in words)” value in series [2] is “very interesting neuroleptic activity”. Also, the LD50 at 48 h in series [5] is 100 mg/kg.
As for `Cn1cc(C2CCN(CCCC(=O)c3ccc(F)cc3)CC2)c2ccccc21` [Example 2, p-fluoro-ω-[4'-(1"-methyl-3"-indolyl)-piperidino]-butyrophenone hydrochloride], the ED50 in series [1] is 12 mg/kg; in series [3], 5.2 mg/kg; in series [4], 4.5 mg/kg; in series [6] it was 0.2 mg/kg. Moreover, the LD50 at 48 h in series [5] came to 185 mg/kg.
With `COc1ccc2c(C3CCN(CCCC(=O)c4ccc(F)cc4)CC3)c[nH]c2c1` [Example 3, p-fluoro-ω-[4'-(6"-methoxy-3"-indolyl)-piperidino]-butyrophenone hydrochloride], the ED50 in series [1] stood at 2 mg/kg; in series [3] it was 1.2 mg/kg; in series [4], 0.9 mg/kg; in series [6] (setting [7]), 0.01 mg/kg. Further, the “neuroleptic activity (in words)” value in series [2] is listed as “very interesting neuroleptic activity”. Moreover, the LD50 at 48 h in series [5] amounted to 190 mg/kg.
With `COc1ccc2[nH]cc(C3CCN(CCCC(=O)c4ccc(F)cc4)CC3)c2c1` [Example 4, p-fluoro-ω-[4'-(5"-methoxy-3"-indolyl)-piperidino]-butyrophenone hydrochloride], the ED50 in series [1] is 6 mg/kg; in series [3], 1 mg/kg; in series [4], 0.2 mg/kg; in series [6] (setting [7]) it was below 0.3 mg/kg. The “neuroleptic activity (in words)” value in series [2] is listed as “very interesting neuroleptic activity”. This molecule came in with an LD50 at 48 h in series [5] of 300 mg/kg.
Take `COc1ccc2c(C3CCN(CCCC(=O)c4ccc(F)cc4)CC3)c(C)[nH]c2c1` [Example 5, p-fluoro-ω-[4'-(2"-methyl-6"-methoxy-3"-indolyl)-piperidino]butyrophenone]: the ED50 in series [1] turned out to be 3.5 mg/kg; in series [3], 3.8 mg/kg; in series [4], 0.3 mg/kg; in series [6] (setting [7]), 0.0045 mg/kg. Besides, the “neuroleptic activity (in words)” value in series [2] is reported as “very interesting neuroleptic activity”. The same molecule had an LD50 at 48 h in series [5] of 600 mg/kg.
The molecule `O=C(CCCN1CCC(c2c[nH]c3ccccc23)CC1)c1ccc(Br)cc1` [Example 6, p-bromo-ω-[4'-(3"-indolyl)-piperidino]-butyrophenone hydrochloride] gave an LD50 at 48 h in series [5] of 300 mg/kg.
With `O=C(CCCN1CCC(c2c[nH]c3ccccc23)CC1)c1ccccc1` [Example 7, ω-[4'-(3'-indolyl)-piperidino]-butyrophenone hydrochloride], the ED50 in series [1] is 11 mg/kg; in series [3] it was 7 mg/kg; in series [4] it was 4 mg/kg; in series [6] (setting [7]), 0.06 mg/kg. Also, in series [5], the LD50 at 48 h was determined as 300 mg/kg.
Take `O=C(CCN1CCC(c2c[nH]c3ccccc23)CC1)c1ccc(F)cc1` [Example 8, hydrochloride]: the figures for the ED50 in series [3] and in series [4] were 2.5 mg/kg and 2.7 mg/kg, respectively. In series [5], the LD50 at 48 h turned out to be 600 mg/kg.

What is called LD50 is the dose expected to kill half of the subjects tested.
